Data taken from patent US20150105252A1, “SUBSTITUTED PYRAZOLES AS HERBICIDES” (E I DU PONT DE NEMOURS AND COMPANY, priority 2013, published 2015).

Columns and labels:
crabgrass, large = experiment: Test A preemergence; type: in vivo, Digitaria sanguinalis; conditions: preemergence
How it was run: (§1)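 Growth medium: loam soil blended with sand. Preemergence treatment used a directed soil spray right after planting; postemergence treatment targeted seedlings at one to two leaves (2–10 cm height). Response was judged by eye relative to untreated plants about 10 days later on a 0–100 control scale.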

morningglory [1] = experiment: Test A preemergence; type: in vivo, Ipomoea spp.; conditions: preemergence
How it was run: as §1

pigweed [2] = experiment: Test A preemergence; type: in vivo, Amaranthus retroflexus; conditions: preemergence
How it was run: as §1

morningglory [3] = experiment: Test A postemergence; type: in vivo, Ipomoea spp.
How it was run: as §1

pigweed [4] = experiment: Test A postemergence; type: in vivo, Amaranthus retroflexus
How it was run: as §1

wheat = experiment: Test A postemergence; type: in vivo, Triticum aestivum
How it was run: as §1

corn [5] = experiment: Test A postemergence; type: in vivo, Zea mays
How it was run: as §1

rice = experiment: Test B flood; type: in vivo, Oryza sativa; conditions: 250 g ai/ha, visual rating on 0 to 100 scale (0 no effect, 100 complete control), 13 to 15 days
How it was run: (§2)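 Plants were grown to the 2-leaf stage, then pots were flooded to 3 cm above the soil and compounds were applied directly into the paddy water. Water depth was held for the whole test; after 13 to 15 days in a greenhouse, injury was visually rated against untreated controls (0 = no effect, 100 = complete control).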

ducksalad = experiment: Test B flood; type: in vivo, Heteranthera limosa; conditions: 250 g ai/ha, visual rating on 0 to 100 scale (0 no effect, 100 complete control), 13 to 15 days
How it was run: as §2

blackgrass = experiment: Test C preemergence; type: in vivo, Alopecurus myosuroides; conditions: for Plant response rating (scale of 0 to 100), Blackgrass: Preemergence, 250 g ai/ha; for Blackgrass plant response rating / Plant response rating, Blackgrass: preemergence; for Plant response rating, Blackgrass: scale 0 to 100, 0 = no effect, 100 = complete control
How it was run: (§3)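 Greenhouse pot test: preemergence application onto freshly seeded loam/sand mix, postemergence application onto seedlings (1–4 leaves, 2–18 cm) in peat-vermiculite substrate. Responses scored visually 13 to 15 days later relative to controls, where 0 means no effect and 100 means complete control; a dash indicates no result.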

ryegrass, Italian = experiment: Test C preemergence; type: in vivo, Lolium multiflorum; conditions: for Plant response rating (scale of 0 to 100), Ryegrass, Italian: Preemergence, 250 g ai/ha; for Ryegrass, Italian plant response rating / Plant response rating, Ryegrass, Italian: preemergence; for Plant response rating, Ryegrass, Italian: scale 0 to 100, 0 = no effect, 100 = complete control
How it was run: as §3

corn [6] = experiment: Test C preemergence; type: in vivo, Zea mays; conditions: for Plant response rating (scale of 0 to 100), Corn: Preemergence, 250 g ai/ha; for Corn plant response rating / Plant response rating, Corn: preemergence; for Plant response rating, Corn: scale 0 to 100, 0 = no effect, 100 = complete control
How it was run: as §3

foxtail, giant = experiment: Test C preemergence; type: in vivo, Setaria faberii; conditions: for Plant response rating (scale of 0 to 100), Foxtail, Giant: Preemergence, 250 g ai/ha; for Foxtail, Giant plant response rating / Plant response rating, Foxtail, Giant: preemergence; for Plant response rating, Foxtail, Giant: scale 0 to 100, 0 = no effect, 100 = complete control
How it was run: as §3

ragweed = experiment: Test C preemergence; type: in vivo, Ambrosia elation; conditions: for Plant response rating (scale of 0 to 100), Ragweed: Preemergence, 250 g ai/ha; for Ragweed plant response rating / Plant response rating, Ragweed: preemergence; for Plant response rating, Ragweed: scale 0 to 100, 0 = no effect, 100 = complete control
How it was run: as §3

waterhemp = experiment: Test C preemergence; type: in vivo, Amaranthus rudis; conditions: for Plant response rating (scale of 0 to 100), Waterhemp: Preemergence, 250 g ai/ha; for Waterhemp plant response rating / Plant response rating, Waterhemp: preemergence; for Plant response rating, Waterhemp: scale 0 to 100, 0 = no effect, 100 = complete control
How it was run: as §3

[7] = 125 g ai/ha, visual injury, 0 to 100 scale, approx. 10 days
[8] = 500 g ai/ha, visual injury after approx. 10 days, 0 to 100 scale (0 no effect, 100 complete control)
[9] = Postemergence, 500 g ai/ha, visual rating after approx. 10 days, 0 to 100 scale (0 no effect, 100 complete control)
[10] = postemergence, 125 g ai/ha, about 10 days, visual rating on 0 to 100 scale (0 no effect, 100 complete control)
[11] = 31 g ai/ha, visual rating, scale 0 to 100 (0 no effect, 100 complete control), 13 to 15 days
[12] = 62 g ai/ha, scale 0 to 100 (0 no effect, 100 complete control), 13 to 15 days
[13] = 125 g ai/ha, scale 0 to 100, 0 is no effect, 100 is complete control
[14] = Postemergence, 500 g ai/ha, 0 to 100 scale (0 no effect, 100 complete control)

CCCc1cc(C(=O)NCC(F)(F)F)nn1Cc1ccnc(C(F)(F)F)c1 [Compound 105]
Crabgrass, Large plant response rating (crabgrass, large; [7]): 100
Crabgrass, Large plant response rating (crabgrass, large; [8]): 100
Morningglory plant response rating (morningglory [1]; [7]): 100
Morningglory plant response rating (morningglory [1]; [8]): 100
Pigweed plant response rating (pigweed [2]; [7]): 100
Pigweed plant response rating (pigweed [2]; [8]): 100
Morningglory plant response rating (morningglory [3]; [9]): 100
Morningglory plant response rating (morningglory [3]; [10]): 100
Pigweed plant response rating (pigweed [4]; [9]): 100
Pigweed plant response rating (pigweed [4]; [10]): 100
Wheat plant response rating (wheat; [9]): 100
Wheat plant response rating (wheat; [10]): 100
Corn plant response rating (corn [5]; [9]): 100
Corn plant response rating (corn [5]; [10]): 80
Plant response rating, Rice (rice): 90
Plant response rating, Ducksalad (ducksalad): 95
Plant response rating (scale of 0 to 100), Blackgrass (blackgrass): 90
Blackgrass plant response rating (blackgrass; [11]): 90
Blackgrass plant response rating (blackgrass; [12]): 90
Blackgrass plant response rating (blackgrass; [13]): 90
Plant response rating (scale of 0 to 100), Ryegrass, Italian (ryegrass, Italian): 95
Ryegrass, Italian plant response rating (ryegrass, Italian; [11]): 85
Ryegrass, Italian plant response rating (ryegrass, Italian; [12]): 95
Ryegrass, Italian plant response rating (ryegrass, Italian; [13]): 95
Plant response rating (scale of 0 to 100), Corn (corn [6]): 95
Corn plant response rating (corn [6]; [11]): 65
Corn plant response rating (corn [6]; [13]): 80
Plant response rating (scale of 0 to 100), Foxtail, Giant (foxtail, giant): 100
Foxtail, Giant plant response rating (foxtail, giant; [11]): 100
Foxtail, Giant plant response rating (foxtail, giant; [12]): 100
Foxtail, Giant plant response rating (foxtail, giant; [13]): 100
Plant response rating (scale of 0 to 100), Ragweed (ragweed): 98
Ragweed plant response rating (ragweed; [11]): 98
Ragweed plant response rating (ragweed; [12]): 98
Ragweed plant response rating (ragweed; [13]): 98
Plant response rating (scale of 0 to 100), Waterhemp (waterhemp): 100
Waterhemp plant response rating (waterhemp; [11]): 100
Waterhemp plant response rating (waterhemp; [12]): 100
Waterhemp plant response rating (waterhemp; [13]): 100

CCCc1cc(C(=O)NCC)nn1Cc1cc(C(F)(F)F)nn1C [Compound 129]
Crabgrass, Large plant response rating (crabgrass, large; [7]): 100
Crabgrass, Large plant response rating (crabgrass, large; [8]): 100
Morningglory plant response rating (morningglory [1]; [7]): 100
Morningglory plant response rating (morningglory [1]; [8]): 100
Pigweed plant response rating (pigweed [2]; [7]): 100
Pigweed plant response rating (pigweed [2]; [8]): 100
Morningglory plant response rating (morningglory [3]; [14]): 100
Morningglory plant response rating (morningglory [3]; [10]): 90
Pigweed plant response rating (pigweed [4]; [14]): 100
Pigweed plant response rating (pigweed [4]; [10]): 100
Wheat plant response rating (wheat; [14]): 70
Wheat plant response rating (wheat; [10]): 50
Corn plant response rating (corn [5]; [14]): 80
Corn plant response rating (corn [5]; [10]): 50
Plant response rating, Rice (rice): 40
Plant response rating, Ducksalad (ducksalad): 95
Plant response rating (scale of 0 to 100), Blackgrass (blackgrass): 90
Blackgrass plant response rating (blackgrass; [11]): 60
Blackgrass plant response rating (blackgrass; [12]): 80
Plant response rating, Blackgrass (blackgrass; 125 g ai/ha, 13 to 15 days): 90
Plant response rating (scale of 0 to 100), Ryegrass, Italian (ryegrass, Italian): 95
Ryegrass, Italian plant response rating (ryegrass, Italian; [11]): 5
Ryegrass, Italian plant response rating (ryegrass, Italian; [12]): 90
Plant response rating, Ryegrass, Italian (ryegrass, Italian; 125 g ai/ha, 13 to 15 days): 95
Plant response rating (scale of 0 to 100), Corn (corn [6]): 65
Corn plant response rating (corn [6]; [11]): 0
Corn plant response rating (corn [6]; [12]): 15
Plant response rating, Corn (corn [6]; 125 g ai/ha, 13 to 15 days): 55
Plant response rating (scale of 0 to 100), Foxtail, Giant (foxtail, giant): 100
Foxtail, Giant plant response rating (foxtail, giant; [11]): 100
Foxtail, Giant plant response rating (foxtail, giant; [12]): 100
Plant response rating, Foxtail, Giant (foxtail, giant; 125 g ai/ha, 13 to 15 days): 100
Plant response rating (scale of 0 to 100), Ragweed (ragweed): 100
Ragweed plant response rating (ragweed; [11]): 85
Ragweed plant response rating (ragweed; [12]): 90
Plant response rating, Ragweed (ragweed; 125 g ai/ha, 13 to 15 days): 98
Plant response rating (scale of 0 to 100), Waterhemp (waterhemp): 100
Waterhemp plant response rating (waterhemp; [11]): 100
Waterhemp plant response rating (waterhemp; [12]): 100
Plant response rating, Waterhemp (waterhemp; 125 g ai/ha, 13 to 15 days): 100

CCNC(=O)c1cc(CC)n(Cc2ccnc(OC(F)F)c2)n1 [Compound 130]
Crabgrass, Large plant response rating (crabgrass, large; [7]): 100
Crabgrass, Large plant response rating (crabgrass, large; [8]): 100
Morningglory plant response rating (morningglory [1]; [7]): 100
Morningglory plant response rating (morningglory [1]; [8]): 100
Pigweed plant response rating (pigweed [2]; [7]): 100
Pigweed plant response rating (pigweed [2]; [8]): 100
Morningglory plant response rating (morningglory [3]; [14]): 100
Morningglory plant response rating (morningglory [3]; [10]): 90
Pigweed plant response rating (pigweed [4]; [14]): 100
Pigweed plant response rating (pigweed [4]; [10]): 100
Wheat plant response rating (wheat; [14]): 90
Wheat plant response rating (wheat; [10]): 20
Corn plant response rating (corn [5]; [14]): 90
Corn plant response rating (corn [5]; [10]): 70
Plant response rating, Rice (rice): 15
Plant response rating, Ducksalad (ducksalad): 90
Plant response rating (scale of 0 to 100), Blackgrass (blackgrass): 98
Blackgrass plant response rating (blackgrass; [11]): 25
Blackgrass plant response rating (blackgrass; [12]): 98
Plant response rating, Blackgrass (blackgrass; 125 g ai/ha, 13 to 15 days): 98
Plant response rating (scale of 0 to 100), Ryegrass, Italian (ryegrass, Italian): 98
Ryegrass, Italian plant response rating (ryegrass, Italian; [11]): 5
Ryegrass, Italian plant response rating (ryegrass, Italian; [12]): 25
Plant response rating, Ryegrass, Italian (ryegrass, Italian; 125 g ai/ha, 13 to 15 days): 65
Plant response rating (scale of 0 to 100), Corn (corn [6]): 85
Corn plant response rating (corn [6]; [11]): 5
Corn plant response rating (corn [6]; [12]): 30
Plant response rating, Corn (corn [6]; 125 g ai/ha, 13 to 15 days): 45
Plant response rating (scale of 0 to 100), Foxtail, Giant (foxtail, giant): 100
Foxtail, Giant plant response rating (foxtail, giant; [11]): 70
Foxtail, Giant plant response rating (foxtail, giant; [12]): 95
Plant response rating, Foxtail, Giant (foxtail, giant; 125 g ai/ha, 13 to 15 days): 100
Plant response rating (scale of 0 to 100), Ragweed (ragweed): 100
Ragweed plant response rating (ragweed; [11]): 70
Ragweed plant response rating (ragweed; [12]): 100
Plant response rating, Ragweed (ragweed; 125 g ai/ha, 13 to 15 days): 100
Plant response rating (scale of 0 to 100), Waterhemp (waterhemp): 100
Waterhemp plant response rating (waterhemp; [11]): 100
Waterhemp plant response rating (waterhemp; [12]): 100
Plant response rating, Waterhemp (waterhemp; 125 g ai/ha, 13 to 15 days): 100
